Data on ten molecules can be found in PMC6222496 (Molecules : A Journal of Synthetic Chemistry and Natural …, 2018).

Data set [1] relates to rats. To be noted: cited from earlier work.
Data set [2] has as its system rats. As to conditions: 0.1 mg/kg; cited from earlier work.
In data set [3] the test system is rats. To be noted: cited from earlier work; for pro-depressive effects: 2-ethoxymethyl ether Sal B 0.3 mg/kg, β-tetrahydropyran Sal B 2 mg/kg.
Data set [4] relates to mice. On the set-up: method as in PMID 28263712. To be noted: 3 mg/kg; cited from earlier work.
For data set [5], the target named is human KOPr. As to conditions: cited from earlier work.
Data set [6] concerns B6.SJL mice. The data set is classed as in vivo, mouse.
The test system of data set [7] is rats. Briefly: Forced swim test. The format is in vivo, rat. As to conditions: 0.3 mg/kg i.p., 45 min before test. As for the experimental part: The FST apparatus consisted of a cylinder (44 cm high and 20 cm in diameter) filled to 35 cm with water maintained at 25 ± 1 °C. On the habituation day, the rats were placed in the swim chamber for 15 min and the following day were administered either with Mesyl Sal B (0.3 mg/kg, i.p.) or the vehicle (75% DMSO, 1 mL/kg, i.p.) and placed in the swim chamber45 min later. The forced swimming behavior was recorded by a video camera and the climbing, swimming, or immobility behaviors were recorded for 5 min. Data were analyzed using the SMART software (version 3.0; PanLab, Barcelona, Spain).

The test system of data set [8] is Sprague-Dawley rats. The data set is described as follows: Expression of behavioral sensitization to cocaine. The data set is classed as in vivo, rat. As to conditions: 0.3 mg/kg i.p. on day 10, 45 min before cocaine 20 mg/kg.
Data set [9] deals with Sprague-Dawley rats. The data set is described as follows: Cocaine-induced hyperactivity. The data set is classed as in vivo, rat. To be noted: 0.3 mg/kg i.p., 45 min prior to cocaine 20 mg/kg.
The test system of data set [10] is mice. Also on record: method as in PMID 28263712. As to conditions: chronic escalation drinking; cited from earlier work.
The target of data set [11] is T1, hKOR (Homo sapiens, UniProt P41145).
T1 construct: host or cells: U2OS (PathHunter U2OS-hKOR-βarrestin2-DX)
T1 sequence (P41145 whole entry): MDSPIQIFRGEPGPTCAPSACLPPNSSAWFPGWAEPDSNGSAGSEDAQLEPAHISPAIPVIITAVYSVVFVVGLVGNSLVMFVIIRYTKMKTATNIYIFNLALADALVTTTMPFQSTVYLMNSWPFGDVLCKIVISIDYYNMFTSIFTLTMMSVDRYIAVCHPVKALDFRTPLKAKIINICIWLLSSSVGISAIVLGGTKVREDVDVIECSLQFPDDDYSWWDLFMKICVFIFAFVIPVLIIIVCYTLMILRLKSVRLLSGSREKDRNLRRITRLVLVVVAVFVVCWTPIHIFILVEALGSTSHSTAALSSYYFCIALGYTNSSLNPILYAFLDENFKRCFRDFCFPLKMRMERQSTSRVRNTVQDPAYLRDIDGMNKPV
T1 sequence (P32121 whole entry partner): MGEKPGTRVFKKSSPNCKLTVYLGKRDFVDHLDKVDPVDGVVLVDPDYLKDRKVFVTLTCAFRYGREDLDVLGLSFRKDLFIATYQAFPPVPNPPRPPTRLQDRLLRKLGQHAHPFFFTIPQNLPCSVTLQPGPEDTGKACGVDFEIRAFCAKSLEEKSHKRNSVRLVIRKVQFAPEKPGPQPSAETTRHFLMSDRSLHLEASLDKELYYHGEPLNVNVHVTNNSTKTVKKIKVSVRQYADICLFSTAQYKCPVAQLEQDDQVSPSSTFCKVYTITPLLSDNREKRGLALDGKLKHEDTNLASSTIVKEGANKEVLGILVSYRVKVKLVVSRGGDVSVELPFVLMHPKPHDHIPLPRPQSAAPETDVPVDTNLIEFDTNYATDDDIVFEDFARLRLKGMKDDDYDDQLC
The data set is described as follows: cell-based. The data set is classed as cell-based.

Data set [12] concerns rats. As to conditions: rat, in vivo.
For data set [13], the target named is T2, KOPr (Homo sapiens, UniProt P41145).
T2 construct: host or cells: CHO (HitHunter cell line)
T2 sequence (P41145 whole entry): as the sequence (P41145 whole entry) above
The data set is described as follows: cell-based.

In data set [14] the test system is drug naïve rats. As to conditions: cited from earlier work.
For data set [15], the system named is Sprague Dawley rats. The data set is described as follows: Sucrose self-administration / sucrose intake. The data set is classed as in vivo, rat. To be noted: 0.3 and 1.0 mg/kg i.p., 45 min pretreatment. As for the experimental part:
For sucrose reinforcement tests, rats were maintained at approximately 85% of their initial feeding weights with free access to water throughout the experiment. Rats were trained to orally self-administer a 10% sucrose solution in eight modular test chambers (Med Associates) as previously described. Rats were trained to self-administer sucrose orally using an auto-shaping procedure (45 min daily for ten days). Once stable responding was achieved, the animals were maintained on a Fixed Ratio 1 (FR1) schedule of reinforcement where depression of the active lever (left lever) led to the delivery of sucrose solution. Following oral acquisition, the response requirements were increased to an FR5 schedule of reinforcement. Daily 1 h sessions were conducted until there was less than 20% variation in responding for three consecutive days. The animals on stable FR5 reinforcements were subjected to the sucrose reinforcement test. On the test day, rats received either vehicle (75% DMSO, 1 mL/kg, i.p.) or Mesyl Sal B (0.3, 1.0 mg/kg, i.p.) and 45 min later, sucrose reinforced lever-press responding was recorded for 60 min.

For data set [16], the system named is Sprague Dawley rats. To be noted: rat, in vivo.
The subject of data set [17] is rats.
The subject of data set [18] is B6.SJL mice. To be noted: cited from earlier work; for duration of action (antinociceptive effects): 1 mg/kg.
The test system of data set [19] is rats. This is another data set of the same source.
The subject of data set [20] is B6.SJL mice. To be noted: mouse, in vivo; for EC50 (antinociception, % MPE): sc.
Data set [21] relates to mice.
Data set [22] deals with Sprague Dawley rats. As to conditions: rat, in vivo; cited from earlier work.
Data set [23] deals with Sprague-Dawley rats. As to conditions: rat, in vivo; cited from earlier work.
In data set [24] the test system is mice. As to conditions: 1–3.2 mg/kg; cited from earlier work.
Data set [25] relates to Sprague-Dawley rats. To be noted: rat, in vivo; cited from earlier work. This is another data set of the same source.
Data set [26] relates to Rhesus macaques. To be noted: 0.01–0.1 mg/kg i.v.; cited from earlier work.
Data set [27] has as its system rats. As to conditions: 0.16 mg/kg; cited from earlier work.
The subject of data set [28] is rats. To be noted: 0.3 mg/kg; cited from earlier work.
Data set [29] concerns mice. To be noted: mouse, in vivo; cited from earlier work.
Data set [30] has as its system P-glycoprotein efflux pump. To be noted: cited from earlier work.
For data set [31], the system named is mice. As to conditions: Sal A 3–10 mg/kg, for 30 min; cited from earlier work.
Data set [32] concerns human KOPr. To be noted: cited from earlier work. This is another data set of the same source.
The target in data set [33] is T2, KOPr. Also on record: method as in PMID 25320048. To be noted: human embryonic kidney cells; cited from earlier work.
Data set [34] relates to rhesus monkeys. To be noted: rhesus monkey, in vivo; cited from earlier work.
The test system of data set [35] is rat KOPr. As to conditions: cited from earlier work.
Data set [36] relates to B6.SJL mice. To be noted: cited from earlier work.
The mark [37] stands for this setting: 2 mg/kg i.p., 5 min before formaldehyde.

Like-named read-outs stand apart in the source and are kept apart here.

As a reminder, the Ki is the dissociation constant of the complex between target and ligand, obtained from inhibition or displacement. Usually EC50 stands for the concentration needed to bring the measured effect to its halfway point. Lower therefore signals greater potency. Usually Emax stands for the greatest response seen or fitted, relative to the assay's reference.

For the molecule `CCOCO[C@H]1C[C@@H](C(=O)OC)[C@]2(C)CC[C@H]3C(=O)O[C@H](c4ccoc4)C[C@]3(C)[C@H]2C1=O` [2-ethoxymethyl ether Sal B], in [1] (rats), the “cocaine-prime induced cocaine seeking” value is “attenuate”. For the same molecule, the “aversive effects in the CPA paradigm” value in [2] is given as “did not show aversive effects”. Further, the pro-depressive effects result in data set [3] is “did not”.
Regarding `COC(=O)[C@@H]1C[C@H](OS(C)(=O)=O)C(=O)[C@H]2[C@@]1(C)CC[C@H]1C(=O)O[C@H](c3ccoc3)C[C@]21C` [Mesyl Sal B, (2S,4aR,6aR,7R,9S,10aS,10bR)-9-(methanesulfonyloxy)-2-(3-furanyl)dodecahydro-6a, 10b-dimethyl-4,10-dioxy-2H-naptho [2,1-c]pyran-7-carboxylic acid methyl ester], the “sucrose or saccharin intake” value in [4] is “no effect”. In data set [5], the Ki was 2.3 ± 0.1 nM. In addition, in [6] (mouse, in vivo), the pain score result is given as “small but significant decrease”, the “phase 1 nociceptive pain (0–15 min)” value was “minimally effective” and the “phase 2 inflammatory pain (20–60 min)” value is recorded as “reducing phase 2 pain at the 30 min time point”. The formaldehyde-induced paw edema result in data set [6] (mouse, in vivo, ip, 2 mg/kg) was “no significant reduction”. In data set [7], the swimming time entry was “significant decrease” and the time spent immobile entry is listed as “significant increase”. The “expression of cocaine behavioral sensitization” value in data set [8] is “suppresses”. Besides, in data set [9], the cocaine-induced hyperactivity result is “suppressed”. For the same molecule, the alcohol intake result in data set [10] was “attenuates”. In data set [11], the “Bias Factor” value is recorded as 0.61, the 50% effective concentration (EC50) came out at 236 nM and the “β-Arrestin Recruitment (PathHunter) Efficacy” value worked out at 90.2%. Besides, the “time spent in the drug-paired chamber” value in data set [12] is reported as “did not significantly alter”. Further, in data set [13], a half-maximal response (EC50) required 0.12 nM. For the same molecule, the “locomotor activity, spontaneous open field” value in data set [14] (rat, in vivo) is given as “no significant effect”. Further, the “sucrose intake (sucrose-reinforced responding)” value in data set [15] is given as “no effect”. Also, the “cocaine-prime induced reinstatement of drug seeking” value in data set [1] (rat, in vivo) is listed as “attenuate”. For the same molecule, the “recognition index (RI) value” in data set [16] is given as “No change”. Further, in data set [17] (rat, in vivo), the “taste aversion (saccharin consumption on test day)” value is “did not induce taste aversion”. Also, the “duration of action (antinociceptive effects)” value in [18] (mouse, in vivo, ip) is 60 min. Further, the “time at which effects are seen (onset of action)” value in [18] (mouse, in vivo) was 30 to 60 min. Moreover, the “time spent in the open arm” value in [19] (rat, in vivo) is on record as “no effect”. Besides, in data set [20], the Emax is given as 38% and the “EC50 (antinociception, % MPE)” value is recorded as 3.0 mg/kg. Moreover, the “motor impairment (latency to fall)” value in data set [21] (mouse, in vivo) is recorded as “no motor impairment”.
As to `COC(=O)[C@@H]1C[C@H](OC(C)=O)C(=O)[C@H]2[C@@]1(C)CC[C@H]1C(=O)O[C@H](c3ccoc3)C[C@]21C` [Sal A, Salvinorin A], the sucrose self-administration result in data set [22] is on record as “no effects”. Further, the “locomotor activity produced by acute cocaine administration” value in [23] is “increased”. For the same molecule, the “place conditioning at higher doses” value in data set [24] was “aversion”. In data set [6] (setting [37]), the “phase 1 nociceptive pain (0–15 min)” value was “significant attenuation” and the “phase 2 inflammatory pain (20–60 min)” value is recorded as “significant attenuation”. The formaldehyde-induced paw edema result in data set [6] (60 min after formaldehyde, Sal A 2 mg/kg i.p.) is reported as “significantly reduced”. Also, the cocaine-induced behavioral sensitization result in data set [25] is reported as “attenuated”. Moreover, the sedation result in [26] was “sedative effect”. Besides, the anxiety-related effects entry in [27] is “anxiolytic effects”. For the same molecule, in [28], the “aversion in CTA experiments” value was “no aversion”. Moreover, the “Bias Factor” value in [11] turned out to be 0.35. For the same molecule, in data set [29], the “climbing behavior (motor coordination)” value is reported as “rapidly disrupt climbing behavior”. The “P-glycoprotein efflux pump substrate” value in [30] is given as “substrate”. In addition, in [14] (0.3 mg/kg, rats), the “spontaneous locomotion, open field” value is recorded as “did not alter”. Besides, in [1] (rats), the “cocaine-prime induced cocaine seeking” value is on record as “attenuate” and the “cocaine-prime induced reinstatement of drug seeking” value is “attenuate”. In addition, the depressive effects result in data set [3] (0.25–2 mg/kg, rats) is recorded as “induces depressive effects”. For the same molecule, the “anti-depressive and anxiolytic effects” value in data set [3] (10–1000 μg/kg, rats) was “potent anti-depressive and anxiolytic effects”. Besides, in [17] (0.3 mg/kg), the “taste aversion (saccharin consumption on test day)” value is “no effect”. Besides, in data set [18] (mice, i.p.), the “duration of action (antinociceptive effects)” value is given as 15 min. In addition, the “motor coordination in rotarod performance test” value in [31] was “induced motor incoordination”. For the same molecule, the signaling bias entry in data set [32] (human receptor) is on record as “significantly biased towards the β-arrestin2 pathway”. The “time spent in the open arm” value in [19] (1 mg/kg) is “significantly decreased”. In addition, in data set [20], the maximal effect (Emax) is listed as 87% and the “EC50 (antinociception, % MPE)” value is 2.1 mg/kg. Moreover, in data set [33], the signaling bias entry is listed as “balanced agonist”. Moreover, the “motor impairment (latency to fall)” value in [21] (2 mg/kg i.p., at 2 and 15 min) is “significant motor impairment”.
In the case of `CCC12CCN(CC3(O)CC3)C(Cc3ccc(O)cc31)C2(C)C` (stereo not drawn) [bremazocine], in data set [34], the cocaine self-administration entry is “decreased” and the food reinforcements entry is “decreased”.
On to `CC[C@]12CCN(CC3CC3)[C@H](C(=O)c3ccc(O)cc31)[C@@H]2C` [ethylketazocine], for which, in data set [34], the cocaine self-administration result is given as “decreased” and the food reinforcements result is listed as “decreased”.
On to `CN(C(=O)/C=C/c1ccoc1)[C@@H]1CC[C@@]2(O)[C@H]3Cc4ccc(O)c5c4[C@@]2(CCN3CC2CC2)[C@H]1O5` [nalfurafine], for which the signaling bias entry is listed as “bias to a much lesser extent” in data set [35] and “extreme G-protein biased signaling” in [32].
In the case of `Oc1ccc2c3c1O[C@H]1c4[nH]c5c(c4C[C@@]4(O)[C@@H](C2)N(CC2CC2)CC[C@]314)C[C@@]1(O)[C@H]2Cc3ccc(O)c4c3[C@@]1(CCN2CC1CC1)[C@H]5O4` [nor-BNI, Nor-binaltorphimine], in data set [16], the “effect on U50488-induced decrease in recognition index” value was “prevented”.
Regarding `COC(=O)[C@@H]1C[C@H](OC2CCCCO2)C(=O)[C@H]2[C@@]1(C)CC[C@H]1C(=O)O[C@H](c3ccoc3)C[C@]21C` (stereo partly drawn) [β-tetrahydropyran Sal B], the “cocaine-prime induced cocaine seeking” value in data set [1] (rats) was “attenuate”. Besides, in data set [3], the pro-depressive effects entry was “did not”. For the same molecule, the “potency and efficacy, cumulative dose-response” value in data set [18] (compared with Sal A) is “more potent and more efficacious than Sal A”. In data set [36] (intraplantar 2% formaldehyde), the antinociceptive effects entry is on record as “potent antinociceptive effects”.
For the molecule RB-64, the “motor coordination in rotarod performance test” value in data set [31] was “did not cause any motor deficits”.
For spirobutyrolactone Sal B, in [36], the formaldehyde-induced paw edema result is “significantly reduced” and the “nociceptive phase of pain” value is “did not reduce”. The “antinociceptive effects, inflammatory phase” value in data set [36] (intraplantar 2% formaldehyde) is “potent antinociceptive effects”.
